Assay results published in PubChem BioAssay (NCI).
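Cultured in 96-well plates, cells were exposed to test compound for 48 hours across five concentrations. TGI: concentration producing complete growth inhibition.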

Assays:
Assay in all cases: DTP human tumour cell line panel, 48 h
CAKI-1 renal = test system: CAKI-1 renal
OVCAR-3 ovarian = test system: OVCAR-3 ovarian
SNB-75 CNS = test system: SNB-75 CNS
A498 renal = test system: A498 renal
SR leukemia = test system: SR leukemia
HL-60(TB) leukemia = test system: HL-60(TB) leukemia
ACHN renal = test system: ACHN renal
SK-OV-3 ovarian = test system: SK-OV-3 ovarian
SF-295 CNS = test system: SF-295 CNS
SNB-19 CNS = test system: SNB-19 CNS
A549 NSCLC = test system: A549 NSCLC
SK-MEL-5 melanoma = test system: SK-MEL-5 melanoma
OVCAR-4 ovarian = test system: OVCAR-4 ovarian
NCI-H460 lung = test system: NCI-H460 lung
HOP-92 NSCLC = test system: HOP-92 NSCLC
MDA-MB-435 = test system: MDA-MB-435
SF-268 CNS = test system: SF-268 CNS
HS 578T breast = test system: HS 578T breast
DU-145 prostate = test system: DU-145 prostate
786-0 renal = test system: 786-0 renal
SF-539 CNS = test system: SF-539 CNS
CCRF-CEM leukemia = test system: CCRF-CEM leukemia
UO-31 renal = test system: UO-31 renal
COLO 205 colon = test system: COLO 205 colon
HT29 colon = test system: HT29 colon
K-562 leukemia = test system: K-562 leukemia
RXF 393 renal = test system: RXF 393 renal
UACC-62 melanoma = test system: UACC-62 melanoma
MDA-MB-231 breast = test system: MDA-MB-231 breast
RPMI-8226 leukemia = test system: RPMI-8226 leukemia
T-47D breast = test system: T-47D breast
SK-MEL-2 melanoma = test system: SK-MEL-2 melanoma
PC-3 prostate = test system: PC-3 prostate
HCC-2998 colon = test system: HCC-2998 colon
SN12C renal = test system: SN12C renal
OVCAR-8 ovarian = test system: OVCAR-8 ovarian
NCI-H226 lung = test system: NCI-H226 lung
SK-MEL-28 melanoma = test system: SK-MEL-28 melanoma
NCI-H522 lung = test system: NCI-H522 lung
MCF7 breast = test system: MCF7 breast
NCI-H23 lung = test system: NCI-H23 lung
IGROV1 ovarian = test system: IGROV1 ovarian
HCT-116 colon = test system: HCT-116 colon
TK-10 renal = test system: TK-10 renal
U251 CNS = test system: U251 CNS
SW-620 colon = test system: SW-620 colon
EKVX NSCLC = test system: EKVX NSCLC
HOP-62 NSCLC = test system: HOP-62 NSCLC
KM12 colon = test system: KM12 colon
HCT-15 colon = test system: HCT-15 colon
NCI/ADR-RES ovarian = test system: NCI/ADR-RES ovarian
M14 melanoma = test system: M14 melanoma
OVCAR-5 ovarian = test system: OVCAR-5 ovarian
MOLT-4 leukemia = test system: MOLT-4 leukemia
MDA-N = test system: MDA-N
MALME-3M melanoma = test system: MALME-3M melanoma
LOX IMVI melanoma = test system: LOX IMVI melanoma
UACC-257 melanoma = test system: UACC-257 melanoma

## Cc1ccccc1NC(=S)N=Nc1c(O)[nH]c2ccccc12
CAKI-1 renal
  TGI: > 100 µM
OVCAR-3 ovarian
  TGI: > 100 µM
SNB-75 CNS
  TGI: > 100 µM
A498 renal
  TGI: > 100 µM
SR leukemia
  TGI: > 100 µM
HL-60(TB) leukemia
  TGI: > 100 µM
ACHN renal
  TGI: > 100 µM
SK-OV-3 ovarian
  TGI: > 100 µM
SF-295 CNS
  TGI: > 100 µM
SNB-19 CNS
  TGI: > 100 µM
A549 NSCLC
  TGI: > 100 µM
SK-MEL-5 melanoma
  TGI: > 100 µM
OVCAR-4 ovarian
  TGI: > 100 µM
NCI-H460 lung
  TGI: > 100 µM
HOP-92 NSCLC
  TGI: > 100 µM
MDA-MB-435
  TGI: > 100 µM
SF-268 CNS
  TGI: 65.3 µM
HS 578T breast
  TGI: > 100 µM
DU-145 prostate
  TGI: > 100 µM
786-0 renal
  TGI: > 100 µM
SF-539 CNS
  TGI: > 100 µM
CCRF-CEM leukemia
  TGI: > 100 µM
UO-31 renal
  TGI: > 100 µM
COLO 205 colon
  TGI: > 100 µM
HT29 colon
  TGI: > 100 µM
K-562 leukemia
  TGI: > 100 µM
RXF 393 renal
  TGI: > 100 µM
UACC-62 melanoma
  TGI: > 100 µM
MDA-MB-231 breast
  TGI: > 100 µM
RPMI-8226 leukemia
  TGI: > 100 µM
T-47D breast
  TGI: > 100 µM
SK-MEL-2 melanoma
  TGI: > 100 µM
PC-3 prostate
  TGI: > 100 µM
HCC-2998 colon
  TGI: > 100 µM
SN12C renal
  TGI: > 100 µM
OVCAR-8 ovarian
  TGI: > 100 µM
NCI-H226 lung
  TGI: > 100 µM
SK-MEL-28 melanoma
  TGI: 36.7 µM
NCI-H522 lung
  TGI: > 100 µM
MCF7 breast
  TGI: > 100 µM
NCI-H23 lung
  TGI: > 100 µM
IGROV1 ovarian
  TGI: > 100 µM
HCT-116 colon
  TGI: > 100 µM
TK-10 renal
  TGI: > 100 µM
U251 CNS
  TGI: > 100 µM
SW-620 colon
  TGI: > 100 µM
EKVX NSCLC
  TGI: > 100 µM
HOP-62 NSCLC
  TGI: > 100 µM
KM12 colon
  TGI: > 100 µM
HCT-15 colon
  TGI: > 100 µM
NCI/ADR-RES ovarian
  TGI: > 100 µM
M14 melanoma
  TGI: > 100 µM
OVCAR-5 ovarian
  TGI: > 100 µM
MOLT-4 leukemia
  TGI: > 100 µM
MDA-N
  TGI: > 100 µM
MALME-3M melanoma
  TGI: > 100 µM
LOX IMVI melanoma
  TGI: > 100 µM
UACC-257 melanoma
  TGI: > 100 µM
